Reference: article PMC12564180 (International Journal of Molecular Sciences, 2025)
Values belong to the compound of their own block, whether it stands above or below them.

What was measured:
[1] = Depletion of 1 µM filapixant in human hepatocytes in absence and presence of CYP3A4 selective and pan-CYP inhibitors; format: in vitro ADME; conditions: 1 µM filapixant, in presence of the inhibitor
[2] = test system: pan-CYP; experiment: as above; format: in vitro ADME; conditions: human, probe filapixant (1 µM, non-labeled), read-out: % of control CLint inhibited
[3] = Incubation of 1 µM [3H]filapixant in human liver microsomes with CYP isoform-selective inhibitors; format: in vitro ADME
[4] = test system: CYP3A4; experiment: Depletion of 1 µM filapixant in human hepatocytes in absence and presence of CYP3A4 selective and pan-CYP inhibitors; format: in vitro ADME; conditions: human, probe filapixant (1 µM, non-labeled), read-out: % of control CLint inhibited
[5] = Clinical drug-drug interaction study filapixant with itraconazole: pharmacokinetics; format: in vivo, human; conditions: plasma, study day 4, itraconazole 200 mg once daily oral solution
Description: Spontaneous reported adverse events were recorded as well adverse events that were reported after open-ended and non-leading verbal questioning of the participants to avoid bias. In addition, itraconazole concentrations were measured in plasma at selected time points to confirm that relevant inhibitory plasma levels were achieved.
The study was conducted in a single-center, open-label, fixed sequence design with two periods.
PK parameters were calculated by a non-compartmental analysis using the program WinNonlin version 5.3 (Pharsight Corporation, St. Louis, MO, USA), with the Automation Extension (version 2.90, Bayer Pharma AG, Wuppertal, Germany). The statistical evaluation was performed by using the software package SAS release 9.2 (SAS Institute Inc., Cary, NC, USA). All analyses were exploratory. Therefore, no multiplicity adjustments were performed.
The main PK metrics AUC and Cmax were statistically analyzed, assuming log-normally distributed data. Mean differences between treatments (and their standard error) were determined for logarithmized PK metrics. A total of 90% CIs for treatment differences were determined as well, applying standard methodology for log-normally distributed data. […] Only participants providing a valid PK profile from both study periods were to be included in the primary analysis.

[6] = molecular target: T1, CYP1A1 (Homo sapiens, UniProt P04798); experiment: Incubation of filapixant with human recombinant CYP1A1 (Supersomes); format: in vitro ADME; conditions: 1 µM [3H]filapixant, CYP1A1, 60 min
T1 construct: purchased
T1 sequence (P04798 1-512): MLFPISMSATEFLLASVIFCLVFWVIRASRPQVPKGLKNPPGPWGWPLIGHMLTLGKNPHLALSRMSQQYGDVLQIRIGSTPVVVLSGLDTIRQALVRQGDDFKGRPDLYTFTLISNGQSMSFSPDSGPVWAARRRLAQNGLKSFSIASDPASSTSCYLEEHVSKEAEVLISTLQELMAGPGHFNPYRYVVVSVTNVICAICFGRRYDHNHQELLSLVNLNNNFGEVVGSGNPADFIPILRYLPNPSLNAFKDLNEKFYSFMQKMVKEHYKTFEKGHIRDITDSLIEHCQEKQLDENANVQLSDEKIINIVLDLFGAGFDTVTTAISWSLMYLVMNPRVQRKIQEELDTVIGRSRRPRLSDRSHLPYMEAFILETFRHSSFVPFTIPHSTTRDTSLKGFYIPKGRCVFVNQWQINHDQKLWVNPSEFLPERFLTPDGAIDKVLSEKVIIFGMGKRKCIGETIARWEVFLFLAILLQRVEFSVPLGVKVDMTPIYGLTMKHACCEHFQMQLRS

[7] = molecular target: T2, CYP2D6 (Homo sapiens, UniProt P10635); experiment: Incubation of filapixant with human recombinant CYP2D6 (Supersomes); format: in vitro ADME; conditions: 1 µM [3H]filapixant, CYP2D6, 60 min
T2 construct: purchased
T2 sequence (P10635 whole entry): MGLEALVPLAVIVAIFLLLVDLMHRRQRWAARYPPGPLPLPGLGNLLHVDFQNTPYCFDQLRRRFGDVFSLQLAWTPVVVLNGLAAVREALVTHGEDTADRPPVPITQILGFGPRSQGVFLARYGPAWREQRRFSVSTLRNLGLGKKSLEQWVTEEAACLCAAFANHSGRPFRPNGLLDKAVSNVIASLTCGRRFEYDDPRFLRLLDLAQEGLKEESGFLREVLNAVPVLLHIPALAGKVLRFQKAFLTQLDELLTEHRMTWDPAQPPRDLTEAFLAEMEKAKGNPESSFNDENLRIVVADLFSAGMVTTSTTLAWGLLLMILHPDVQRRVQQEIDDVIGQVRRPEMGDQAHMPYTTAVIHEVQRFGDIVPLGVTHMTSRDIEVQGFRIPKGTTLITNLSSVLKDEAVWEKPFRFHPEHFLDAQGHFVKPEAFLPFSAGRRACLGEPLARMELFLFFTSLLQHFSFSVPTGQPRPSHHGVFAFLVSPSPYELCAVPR

[8] = molecular target: T3, CYP2J2 (Homo sapiens, UniProt P51589); experiment: Incubation of filapixant with human recombinant CYP2J2 (Supersomes); format: in vitro ADME; conditions: 1 µM [3H]filapixant, CYP2J2, 60 min
T3 construct: purchased
T3 sequence (P51589 1-502): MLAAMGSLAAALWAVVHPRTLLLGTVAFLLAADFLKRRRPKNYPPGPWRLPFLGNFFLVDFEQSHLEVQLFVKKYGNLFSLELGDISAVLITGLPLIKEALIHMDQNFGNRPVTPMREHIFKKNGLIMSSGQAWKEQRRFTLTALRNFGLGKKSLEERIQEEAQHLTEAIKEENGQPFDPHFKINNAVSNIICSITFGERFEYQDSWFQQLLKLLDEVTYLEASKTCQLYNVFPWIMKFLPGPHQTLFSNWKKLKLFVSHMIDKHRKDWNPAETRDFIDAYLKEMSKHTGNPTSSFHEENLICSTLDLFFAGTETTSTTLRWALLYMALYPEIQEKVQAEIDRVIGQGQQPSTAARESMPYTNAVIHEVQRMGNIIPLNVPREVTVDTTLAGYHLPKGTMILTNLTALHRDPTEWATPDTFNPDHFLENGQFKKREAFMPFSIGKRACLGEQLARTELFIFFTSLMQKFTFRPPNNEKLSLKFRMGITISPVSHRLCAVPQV

[9] = molecular target: T4, CYP3A4 (Homo sapiens, UniProt P08684); experiment: Incubation of filapixant with human recombinant CYP3A4 (Supersomes); format: in vitro ADME; conditions: for Remaining drug and formation of metabolites, Peak Area: 1 µM [3H]filapixant, CYP3A4, 60 min; for Vmax of metabolite formation: filapixant in recombinant human CYP3A4 (25 pmol/mL), 20 min incubation
T4 construct: purchased
T4 sequence (P08684 whole entry): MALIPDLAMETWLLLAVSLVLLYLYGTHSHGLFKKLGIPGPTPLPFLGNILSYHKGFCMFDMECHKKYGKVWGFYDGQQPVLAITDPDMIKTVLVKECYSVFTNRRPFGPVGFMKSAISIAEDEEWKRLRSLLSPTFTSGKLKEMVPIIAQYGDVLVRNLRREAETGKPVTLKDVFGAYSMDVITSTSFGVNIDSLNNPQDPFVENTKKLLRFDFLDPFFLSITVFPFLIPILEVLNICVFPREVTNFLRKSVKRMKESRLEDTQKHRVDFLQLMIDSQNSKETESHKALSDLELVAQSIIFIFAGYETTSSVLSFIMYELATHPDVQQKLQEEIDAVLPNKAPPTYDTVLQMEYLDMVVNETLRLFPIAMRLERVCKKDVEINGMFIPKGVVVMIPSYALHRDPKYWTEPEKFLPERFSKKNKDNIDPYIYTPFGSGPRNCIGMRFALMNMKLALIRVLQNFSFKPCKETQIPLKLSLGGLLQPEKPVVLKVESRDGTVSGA

[10] = Biotransformation and enzyme kinetics of filapixant in human liver microsomes; format: in vitro ADME; conditions: [3H]filapixant 1 µM, pooled human liver microsomes, 1 h of incubation, n = 1
Description: (§1) The incubations were analyzed by high-performance liquid chromatography (HPLC) with tandem mass spectroscopy (MS/MS) followed by off-line radioactivity detection to generate metabolite profiles and elucidate or confirm the structures of the metabolites formed.

[11] = Biotransformation of [3H]filapixant in human hepatocytes; format: in vitro ADME; conditions: [3H]filapixant 1 µM, 4 h of incubation, range in three batches
Description: as §1

[12] = molecular target: T5, CYP3A5 (Homo sapiens, UniProt P20815); experiment: Incubation of [3H]filapixant with human recombinant CYP3A5 (Supersomes); format: in vitro ADME; conditions: 1 µM [3H]filapixant, CYP3A5, 60 min
T5 construct: purchased
T5 sequence (P20815 whole entry): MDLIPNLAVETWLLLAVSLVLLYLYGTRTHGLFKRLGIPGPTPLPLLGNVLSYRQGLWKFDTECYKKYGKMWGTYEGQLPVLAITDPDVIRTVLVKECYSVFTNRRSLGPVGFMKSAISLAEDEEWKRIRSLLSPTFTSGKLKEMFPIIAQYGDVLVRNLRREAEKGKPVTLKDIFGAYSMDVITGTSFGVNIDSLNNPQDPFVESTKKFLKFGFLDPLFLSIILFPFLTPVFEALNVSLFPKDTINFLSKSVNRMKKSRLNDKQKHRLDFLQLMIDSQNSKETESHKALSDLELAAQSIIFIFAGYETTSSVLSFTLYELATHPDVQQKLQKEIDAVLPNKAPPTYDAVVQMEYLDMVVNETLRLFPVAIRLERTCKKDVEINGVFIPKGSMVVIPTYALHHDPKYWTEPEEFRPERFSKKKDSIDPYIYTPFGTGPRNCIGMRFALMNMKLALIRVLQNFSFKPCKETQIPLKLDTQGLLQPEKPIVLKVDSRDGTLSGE

[13] = Biotransformation and enzyme kinetics of filapixant in human liver microsomes; format: in vitro ADME; conditions: for Vmax of metabolite formation: filapixant in human liver microsomes (0.5 mg/mL), 30 min incubation; for Km at 30 min: human, human liver microsomes, probe filapixant (substrate), read-out: Km,app of metabolite formation
[14] = molecular target: T6, CYP2C9 (Homo sapiens, UniProt P11712); experiment: Incubation of [3H]filapixant with human recombinant CYP2C9 (Supersomes); format: in vitro ADME; conditions: 1 µM [3H]filapixant, CYP2C9, 60 min
T6 construct: purchased
T6 sequence (P11712 whole entry): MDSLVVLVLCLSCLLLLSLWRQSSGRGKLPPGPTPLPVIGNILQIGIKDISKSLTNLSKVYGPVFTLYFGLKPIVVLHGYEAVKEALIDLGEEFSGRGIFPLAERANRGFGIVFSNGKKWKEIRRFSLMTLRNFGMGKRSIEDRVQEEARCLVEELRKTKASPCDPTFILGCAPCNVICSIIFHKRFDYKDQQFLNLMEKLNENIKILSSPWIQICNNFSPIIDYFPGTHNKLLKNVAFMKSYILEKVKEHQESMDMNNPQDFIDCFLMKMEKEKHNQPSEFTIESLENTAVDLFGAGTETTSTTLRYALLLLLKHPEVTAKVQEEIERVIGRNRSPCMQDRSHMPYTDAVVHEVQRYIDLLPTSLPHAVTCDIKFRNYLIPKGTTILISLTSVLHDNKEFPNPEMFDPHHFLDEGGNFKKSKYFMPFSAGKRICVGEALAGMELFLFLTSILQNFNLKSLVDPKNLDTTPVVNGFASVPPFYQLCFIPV

[15] = molecular target: T7, CYP4F2 (Homo sapiens, UniProt P78329); experiment: Incubation of [3H]filapixant with human recombinant CYP4F2 (Supersomes); format: in vitro ADME; conditions: 1 µM [3H]filapixant, CYP4F2, 60 min
T7 construct: purchased
T7 sequence (P78329 5-520): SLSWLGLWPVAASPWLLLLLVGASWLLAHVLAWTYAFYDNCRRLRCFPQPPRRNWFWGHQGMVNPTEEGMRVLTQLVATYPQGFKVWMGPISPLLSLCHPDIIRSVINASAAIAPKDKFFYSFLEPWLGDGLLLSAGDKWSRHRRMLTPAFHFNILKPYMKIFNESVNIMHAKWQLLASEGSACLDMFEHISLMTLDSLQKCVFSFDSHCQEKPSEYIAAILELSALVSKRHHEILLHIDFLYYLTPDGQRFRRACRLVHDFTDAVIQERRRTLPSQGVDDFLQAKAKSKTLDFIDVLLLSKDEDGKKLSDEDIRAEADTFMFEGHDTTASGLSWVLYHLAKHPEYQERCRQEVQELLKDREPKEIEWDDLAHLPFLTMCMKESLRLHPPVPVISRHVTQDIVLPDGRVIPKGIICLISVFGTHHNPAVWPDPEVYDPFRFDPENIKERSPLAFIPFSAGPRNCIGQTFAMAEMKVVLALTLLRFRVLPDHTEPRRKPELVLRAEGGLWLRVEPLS

[16] = molecular target: T8, CYP2B6 (Homo sapiens, UniProt P20813); experiment: Incubation of [3H]filapixant with human recombinant CYP2B6 (Supersomes); format: in vitro ADME; conditions: 1 µM [3H]filapixant, CYP2B6, 60 min
T8 construct: purchased
T8 sequence (P20813 1-491): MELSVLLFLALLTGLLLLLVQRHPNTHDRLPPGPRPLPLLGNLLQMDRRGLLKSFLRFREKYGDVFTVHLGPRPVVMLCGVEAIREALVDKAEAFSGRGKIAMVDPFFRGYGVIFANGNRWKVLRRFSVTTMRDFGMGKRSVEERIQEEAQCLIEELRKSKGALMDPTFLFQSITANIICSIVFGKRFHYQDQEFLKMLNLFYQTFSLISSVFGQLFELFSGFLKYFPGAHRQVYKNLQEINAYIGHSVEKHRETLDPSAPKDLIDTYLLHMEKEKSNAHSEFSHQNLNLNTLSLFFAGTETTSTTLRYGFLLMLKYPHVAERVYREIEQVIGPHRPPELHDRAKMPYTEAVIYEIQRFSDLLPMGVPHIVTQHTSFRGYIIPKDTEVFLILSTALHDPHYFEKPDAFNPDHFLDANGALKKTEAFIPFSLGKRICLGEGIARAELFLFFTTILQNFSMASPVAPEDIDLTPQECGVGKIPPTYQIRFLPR

[17] = molecular target: T9, CYP2C19 (Homo sapiens, UniProt P33261); experiment: Incubation of [3H]filapixant with human recombinant CYP2C19 (Supersomes); format: in vitro ADME; conditions: 1 µM [3H]filapixant, CYP2C19, 60 min
T9 construct: purchased
T9 sequence (P33261 whole entry): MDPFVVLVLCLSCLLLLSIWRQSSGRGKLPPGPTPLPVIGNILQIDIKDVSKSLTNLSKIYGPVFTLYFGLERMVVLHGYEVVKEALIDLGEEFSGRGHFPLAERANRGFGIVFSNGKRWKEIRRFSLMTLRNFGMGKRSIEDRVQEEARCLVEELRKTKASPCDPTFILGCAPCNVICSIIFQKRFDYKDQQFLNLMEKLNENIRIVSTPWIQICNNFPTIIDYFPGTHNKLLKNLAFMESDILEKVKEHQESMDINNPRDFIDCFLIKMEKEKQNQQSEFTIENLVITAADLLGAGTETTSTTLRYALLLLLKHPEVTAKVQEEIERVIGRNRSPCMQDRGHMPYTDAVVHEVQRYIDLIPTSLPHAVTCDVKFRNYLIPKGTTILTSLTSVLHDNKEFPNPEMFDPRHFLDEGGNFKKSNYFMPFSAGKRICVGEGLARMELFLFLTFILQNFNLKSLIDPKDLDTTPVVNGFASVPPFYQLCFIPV

[18] = insect, 1 h, 1 µM
[19] = patients; cited from earlier work

SMILES: Nn1nnc2ccccc21 [ABT, 1-Aminobenzotriazol]
Reduction of apparent CLint of filapixant compared to untreated control [1]: 90 to 95%
inhibition at 1000 µM [2]: 94.5%

SMILES: CCC(C)n1ncn(-c2ccc(N3CCN(c4ccc(OCC5COC(Cn6cncn6)(c6ccc(Cl)cc6Cl)O5)cc4)CC3)cc2)c1=O (centres unmarked) [Itraconazole, itraconazole]
Effect of inhibitor on drug depletion of [3H]filapixant and formation of metabolites [3]: inhibited
Reduction of apparent CLint of filapixant compared to untreated control [1]: 90 to 95%
inhibition at 2 µM [4]: 94.4%
Mean maximum concentrations of itraconazole [5]: 1014.6 µg/L

SMILES: COCC(=O)O[C@]1(CCN(C)CCCc2nc3ccccc3[nH]2)CCc2cc(F)ccc2[C@@H]1C(C)C [Mibefradil, mibefradil]
Effect of inhibitor on drug depletion of [3H]filapixant and formation of metabolites [3]: inhibited
Reduction of apparent CLint of filapixant compared to untreated control [1]: 90 to 95%
inhibition at 2 µM [4]: 95.6%

SMILES: CC[C@]1(C)C[C@@H](OC(=O)CSc2nnc(N)[nH]2)[C@]2(C)[C@H](C)CC[C@]3(CCC(=O)[C@H]32)[C@@H](C)[C@@H]1O [azamulin]
Effect of inhibitor on drug depletion of [3H]filapixant and formation of metabolites [3]: inhibited

SMILES: Cc1cnc(-c2cc(O[C@@H]3CCOC3)cc(C(=O)N[C@H](C)c3cnc(C(F)(F)F)nc3)c2)s1 [eliapixant]
Frequency of taste disturbances / taste-related side effects [19]: considerably reduced compared to gefapixant

SMILES: COc1cc(C(C)C)c(Oc2cnc(N)nc2N)cc1S(N)(=O)=O [gefapixant]
Frequency of taste disturbances / taste-related side effects [19]: high frequency

Second part, the compound after the results:

Remaining drug and formation of metabolites, Peak Area [6]: 2.9 % of Radioactivity
Remaining drug and formation of metabolites, Peak Area [7]: 5.4 % of Radioactivity
Remaining drug and formation of metabolites, Peak Area [8]: 0.9 % of Radioactivity
Remaining drug and formation of metabolites, Peak Area [9]: 0.5 % of Radioactivity
Recovery of filapixant and metabolite formation, Liver Microsomes [10]: 0.9 % of radioactivity
Recovery of filapixant and metabolite formation, Hepatocytes [11]: 0.4–0.8 % of radioactivity
SMILES: C[C@@H](NC(=O)c1cc(OC[C@H]2CN(C)CCO2)cc(-c2ncc(CO)s2)c1)c1cnc(C(F)(F)F)nc1 [M-3]

Remaining drug and formation of metabolites, Peak Area [6]: 6.5 % of Radioactivity
Remaining drug and formation of metabolites, Peak Area [9]: 6.1 % of Radioactivity
Vmax of metabolite formation [9]: 9.20E+03 peak area/pmol CYP/min
Vmax of metabolite formation (Michaelis-Menten plot, Figure S7) ([9]; recombinant CYP3A4 25 pmol/mL, 20 min, rate axis: area metabolite/min/mg): 9202.
Remaining drug and formation of metabolites, Peak Area [12]: 1.5 % of Radioactivity
Recovery of filapixant and metabolite formation, Liver Microsomes [10]: 7.6 % of radioactivity
Recovery of filapixant and metabolite formation, Hepatocytes [11]: 1.0–7.5 % of radioactivity
Vmax of metabolite formation [13]: 1.02E+04 peak area/pmol CYP/min
Vmax of metabolite formation (Michaelis-Menten plot, Figure S8) ([13]; human liver microsomes 0.5 mg/mL, 30 min, rate axis: area metabolite/min/mg): 1.021e+4
Km at 30 min [13]: 7.9 µM
SMILES: Cc1cnc(-c2cc(OC[C@H]3CN(C)C(=O)CO3)cc(C(=O)N[C@H](C)c3cnc(C(F)(F)F)nc3)c2)s1 [M-4]

Remaining drug and formation of metabolites, Peak Area [14]: 0.2 % of Radioactivity
Remaining drug and formation of metabolites, Peak Area [9]: 0.4 % of Radioactivity
Remaining drug and formation of metabolites, Peak Area [15]: 0.5 % of Radioactivity
Recovery of filapixant and metabolite formation, Hepatocytes [11]: 0–0.2 % of radioactivity
SMILES: C[C@@H](NC(=O)c1cc(OC[C@H]2CN(C)CCO2)cc(-c2ncc(C(=O)O)s2)c1)c1cnc(C(F)(F)F)nc1 [M-5]

Remaining drug and formation of metabolites, Peak Area [6]: 0.5 % of Radioactivity
Remaining drug and formation of metabolites, Peak Area [16]: 0.4 % of Radioactivity
Remaining drug and formation of metabolites, Peak Area [9]: 6.0 % of Radioactivity
Vmax of metabolite formation [9]: 7.78E+04 peak area/pmol CYP/min
Remaining drug and formation of metabolites, Peak Area [12]: 0.8 % of Radioactivity
Recovery of filapixant and metabolite formation, Liver Microsomes [10]: 4.4 % of radioactivity
Vmax of metabolite formation [13]: 1.32E+05 peak area/pmol CYP/min
Km at 30 min [13]: 68 µM
SMILES: Cc1cnc(-c2cc(O)cc(C(=O)N[C@H](C)c3cnc(C(F)(F)F)nc3)c2)s1 [M-6]

Remaining drug and formation of metabolites, Peak Area [6]: 0.7 % of Radioactivity
Remaining drug and formation of metabolites, Peak Area [14]: 0.2 % of Radioactivity
Remaining drug and formation of metabolites, Peak Area [17]: 0.2 % of Radioactivity
Remaining drug and formation of metabolites, Peak Area [8]: 0.7 % of Radioactivity
Remaining drug and formation of metabolites, Peak Area [9]: 3.4 % of Radioactivity
Vmax of metabolite formation [9]: 2.48E+04 peak area/pmol CYP/min
Recovery of filapixant and metabolite formation, Liver Microsomes [10]: 2.4 % of radioactivity
Recovery of filapixant and metabolite formation, Hepatocytes [11]: 0–1.7 % of radioactivity
Vmax of metabolite formation [13]: 4.34E+04 peak area/pmol CYP/min
Km at 30 min [13]: 28.5 µM
SMILES: CNC[C@@H](O)COc1cc(C(=O)N[C@H](C)c2cnc(C(F)(F)F)nc2)cc(-c2ncc(C)s2)c1 [M-8]

Remaining drug and formation of metabolites, Peak Area [9]: 1.9 % of Radioactivity
Recovery of filapixant and metabolite formation, Hepatocytes [11]: 0–0.3 % of radioactivity
Remaining drug and formation of metabolites, Peak Area [18]: 0.2 % of Radioactivity
SMILES: Cc1cnc(-c2cc(OC[C@H](O)CN)cc(C(=O)N[C@H](C)c3cnc(C(F)(F)F)nc3)c2)s1 [M-11]
